This is an account of results in US11033526B2 (priority 2015, dated 2021).

For data set [1], the system named is CMVMJD135 mice. As to conditions: cited from earlier work.
Data set [2] deals with AT3q130 animals (mutant ATXN3). In words: C. elegans assay for motility defects in AT3q130 animals. The settings on record: for mutant ATXN3-mediated neuronal dysfunction (locomotion defects): liquid culture, four day old animals. In kind it is in vivo. As to the method:
C. elegans assays for motility defects and aggregation. Animals (N2, AT3 WT or AT3q130) were grown in liquid culture in a 96-well plate format, with the chemical compounds, as described above. Four day old animals were transferred from the 96-well plates onto an unseeded NGM plate (equilibrated at 20° C.). Plates were allowed to dry for 1 hour before starting the assays. Motility assays were performed at 20° C. as previously described. Motor behaviour assays were run in triplicates or quadruplicates (n=3 or 4), with a total of at least 150 animals tested per genotype and/or compound. For confocal dynamic imaging and quantification of ATXN3 aggregation, live animals were immobilized with 3 mM levamisole (Sigma, USA) and mounted on a 3% agarose pad. All images were captured on an Olympus FV1000 (Japan) or Zeiss LSM 510 (Germany) confocal microscopes, under a 60× oil (NA=1.35) or 63× water (NA=1.0) objectives. Z-series imaging was acquired for all vehicle- and compound-treated animals, using a 515/514 nm laser excitation line for YFP fusion proteins. The pinhole was adjusted to 1.0 Airy unit of optical slice, and a scan was acquired every˜0.5 μm along the Z-axis. For quantification of aggregates three parameters were measured: area of aggregates/total area; number of aggregates/total area and number of aggregates. Values shown are the mean (normalized to vehicle treated control) of eight or more animals per group, unless noted otherwise.

Data set [3] has as its system CMVMJD135 mice. In words: Behavioural assessment of CMVMJD135 mice under chronic oral treatment. In kind it is in vivo, mouse. Here is the method: Transgenic mouse model and drug administration. CMVMJD135 mice were generated as described previously. DNA extraction, animal genotyping and CAG repeat size analyses were performed as previously described. The mean repeat size (±s.d.) for all mice used was 130±2. […] Only male mice were used in this study. […] Treatment was initiated at five weeks of age, one week before the expected onset of the first neurological symptoms. The trial was ended at 34 weeks of age, according to the humane endpoints established for the non-treated CMVMJD135 mice. All animal procedures were conducted in accordance with European regulations (European Union Directive 86/609/EEC). Animal facilities and the people directly involved in animal experiments (ATC, SE, ASF, SDS) were certified by the Portuguese regulatory entity-[…]. All of the protocols performed were approved by the Animal Ethics Committee of the Life and Health Sciences Research Institute, University of Minho. Behavioural assessment. […] All behavioural tests started in a pre-symptomatic stage (4 weeks) and were conducted until 30 or 34 weeks of age (FIG. 5a). […] The dragging of the paws and the stride length were evaluated with footprinting analysis. Motor behaviour was further assessed using the balance beam walk test (12 mm square and 17 mm round beams) and the motor swimming test. […]

In data set [4] the test system is WT mice. As to the kind of experiment: Body weight and motor behaviour of treated WT mice. In kind it is in vivo, mouse. As to the method: Transgenic mouse model and drug administration. CMVMJD135 mice were generated as described previously. DNA extraction, animal genotyping and CAG repeat size analyses were performed as previously described. The mean repeat size (±s.d.) for all mice used was 130±2. […] Only male mice were used in this study. […] Treatment was initiated at five weeks of age, one week before the expected onset of the first neurological symptoms. The trial was ended at 34 weeks of age, according to the humane endpoints established for the non-treated CMVMJD135 mice. All animal procedures were conducted in accordance with European regulations (European Union Directive 86/609/EEC). Animal facilities and the people directly involved in animal experiments (ATC, SE, ASF, SDS) were certified by the Portuguese regulatory entity-[…]. All of the protocols performed were approved by the Animal Ethics Committee of the Life and Health Sciences Research Institute, University of Minho. Behavioural assessment. […] All behavioural tests started in a pre-symptomatic stage (4 weeks) and were conducted until 30 or 34 weeks of age (FIG. 5a). Neurological tests and general health assessment were performed using the SHIRPA protocol, enriched with the hanging wire test. The dragging of the paws and the stride length were evaluated with footprinting analysis. Motor behaviour was further assessed using the balance beam walk test (12 mm square and 17 mm round beams) and the motor swimming test. All behavioural tests were performed as previously described (Silva-Fernandes, A. et al. Chronic Treatment with 17-DMAG Improves Balance and Coordination in A New Mouse Model of Machado-Joseph Disease. Neurotherapeutics (2014). Body weight was also registered for each evaluation time point.

Read-outs that look alike come from different tables or passages of the source.

For `CO[C@H]1/C=C\C=C(/C)C(=O)NC2=CC(=O)C(NCCN(C)C)=C(C[C@@H](C)C[C@H](OC)[C@H](O)[C@@H](C)/C=C(\C)[C@@H]1OC(N)=O)C2=O` [17-DMAG], the “delay of manifestation of motor swimming defects” value in data set [1] (CMVMJD135 mice, previous findings (Silva-Fernandes 2014)) is recorded as “eight”. For the same compound, the “percentage of effect in motor swimming test” value in data set [1] (at 30 weeks, CMVMJD135, previous findings (Silva-Fernandes 2014)) is 33%.

Regarding `O=C1CC2(CCCC2)CC(=O)N1CCCCN1CCN(c2ncccn2)CC1` [buspirone], the “mutant ATXN3-mediated neuronal dysfunction (locomotion defects)” value in data set [2] is recorded as “ameliorated”.

With `CN(C)CCCC1(c2ccc(F)cc2)OCc2cc(C#N)ccc21` (stereo not drawn) [citalopram], the EC50 in data set [2] (Caenorhabditis elegans, dose-response profile, read-out: half-maximal effective concentration (EC50), locomotion defects) was found to be 45 µM. Moreover, the “delay of manifestation of motor swimming defects” value in data set [3] (CMVMJD135 mice) is reported as “at least 20 weeks”. For the same compound, the “percentage of effect in motor swimming test” value in data set [3] (at 30 weeks, CMVMJD135) is on record as 79%. In addition, the “behaviour of treated WT mice versus untreated littermates” value in data set [4] was “behaved similarly”. In data set [4] (8 mg/kg), the “beam walk test, WT mice” value is “No differences”; the “body weight of WT mice” value was “significant increase”; the “motor swimming test, WT mice” value is “No differences”. In addition, the “body weight of WT mice” value in data set [4] (13 mg/kg) was “significant increase”.

As to `CN1C[C@H](C(=O)N[C@]2(C)O[C@@]3(O)[C@@H]4CCCN4C(=O)[C@H](Cc4ccccc4)N3C2=O)C[C@@H]2c3cccc4[nH]cc(c34)C[C@H]21` [dihydroergotamine], in data set [2], the “mutant ATXN3-mediated neuronal dysfunction (locomotion defects)” value is “ameliorated”.

For `CN(C)CCC[C@@]1(c2ccc(F)cc2)OCc2cc(C#N)ccc21` [escitalopram], the “mutant ATXN3-mediated neuronal dysfunction (locomotion defects)” value in data set [2] was “beneficial effects”.

In the case of `CN1C[C@H](CO)C=C2c3cccc4[nH]cc(c34)C[C@H]21` [lysergol], the “mutant ATXN3-mediated neuronal dysfunction (locomotion defects)” value in data set [2] is “ameliorated”.

On to `CC(C)NCC(O)COc1cccc2[nH]ccc12` (stereo not drawn) [pindolol], for which the “mutant ATXN3-mediated neuronal dysfunction (locomotion defects)” value in data set [2] was “ameliorated”.
